Laboratory results as given in article PMC8476002, “Bergamottin a CYP3A inhibitor found in grapefruit juice inhibits prostate cancer cell growth by downregulating androgen receptor signaling and promoting G0/G1 cell cycle block and apoptosis” (PLoS ONE, 2021).

Columns and labels:
[1] = system: several other cancer cell types; set-up: method as in PMID 25130169, PMID 27222242, PMID 10552768, PMID 28726768, PMID 26911804; details: read-out: IC50 for growth of several other cancer cell types; cited from earlier work
total AR in LNCaP cells = assay: Western blotting of total AR, LNCaP; type: cell-based, human; details: bergamottin 10μM, CSSM
Description: (§1) Cells were plated at 25–30% confluence when maintained in complete media. When the cells required DHT tretment and media replacement to charcoal stripped serum media (CSSM) they were plated at 35–40% confluence. Bergamottin is dissolved in DMSO (vehicle control) and the amount of DMSO at each treatment group was kept constant. After the completion of the treatment cells were washed in phosphate buffer (PBS) containing 2mMEDTA and 2mM EGTA and lysed in RIPA buffer (50 mM TRIS, 150 mM NaCl, 1% NP40, 0.5% sodium deoxycholate, 0.1% SDS, 2mM EDTA, 2mM EGTA) supplemented with protease and phosphatase inhibitors for total protein isolation. Protein estimation was performed using micro BCA assay and equal protein amponts were loaded on SDS-PAGE gels for western analysis. GAPDH was used as an internal control for total protein. Infrared fluorescent-labeled secondary antibodies were used for detection using Odyssey CLx. The bands were quantified using Odyssey software, which calculates pixel density and automatically takes an area adjacent to each band for background corrections.

MDAPCa2b cells [2] = assay: Clonogenic assay, MDAPCa2b; type: cell-based, human; details: 5μM and 10μM, 3 weeks
Description: For clonogenic assay, cells were plated in 6 well plates (10,000 cells) for 48 h and then treated with indicated amounts of bergamottin and vehicle control (DMSO). After 3 weeks, the colonies were fixed, stained (0.75% crystal violet, 50% ethanol and 1.75% formaldehyde) and counted. The assay was repeated three times.

[3] = system: PARP cleavage in MDAPCa2b cells; assay: Western blot of PARP cleavage, MDAPCa2b; type: cell-based, human; details: 5 and 10 μM for 96 hrs. and 20 μM for 48 hrs.
Description: as §1
Cells were plated in complete media without antibiotics on poly D-lysine-coated plates (80,000 cells per 6 well). […]

[4] = system: nuclear AR in LNCaP cells; assay: Cell fractionation, AR nuclear localization, LNCaP; type: cell-based, human; details: bergamottin 10μM, with and without DHT induction
Description: as §1
Nuclear and cytoplasmic cell fractionation was prepared using NE-PER Nuclear and cytoplasmic extraction kit from Thermo Scientific (Cat no.78833) and manufacturer’s instructions were followed. […]

MDAPCa2b cells [5] = assay: TUNEL apoptosis detection assay, MDAPCa2b; type: cell-based, human; details: 10μM, 4 days
Description: To detect apoptosis in the cells after bergamottin treatment In Situ cell death detection kit from Sigma-Aldrich (St. Louis, MO) was used. This apoptosis detection kit fluorescently labels the single and double-stranded DNA breaks caused due to apoptosis using terminal deoxynucleotidyl transferase (TUNEL-reaction). The cells were plated in poly- D- lysine coated 35 mm Glass bottom dish (Cellvis catalog# D35C4-20-1.5-N), treated with bergamottin for the specified time, and dosage and then stained with the kit reagents. The kit recommended protocol was followed. After the staining, the confocal microscope was used to procure images of the cells. The TUNEL assay preferentially labels apoptosis in comparison to necrosis and positive apoptosis is recognized when cells incorporate fluorescent labelled nucleotide (Ex 450 to 500nm and Em 515 to 565-green).

MDAPCa2b cells [6] = assay: MTT growth assay, MDAPCa2b; type: cell-based; details: Homo sapiens, MDA-PCa-2b
Description: Growth of the cells was measured using a MTT assay. Cells were plated (2000 cells/ 96 well or 13,000 cells/ 24 well) for 48 hours then treated with bergamottin for 4 days (96 hours) and then incubated with MTT (3-(4,5-Dimethylthiazol- 2-yl)-2,5-Diphenyltetrazolium bromide) (4 mg/ml) for 2 h. at 37°C. DMSO (vehicle control for bergamottin) levels were compensated in each bergamottin treatment group. Cells were centrifuged at 2000 g for 10 min and the supernatant was discarded. The cell pellet was dissolved in 100/500 μl of DMSO depending on the well size. A plate reader was used to read the absorption at 540 nm. Experiments were performed in octuplet/quadruplet and repeated at least three times.

PSA in LNCaP cells = assay: Western blotting of PSA, LNCaP; type: cell-based, human; details: 10μM, 96 hours
Description: as §1

[7] = system: AR nuclear localization in LNCaP cells; assay: Confocal microscopy of AR nuclear localization, LNCaP; type: cell-based, human; details: bergamottin 10μM, versus DMSO
Description: Cells were seeded into 35 mm Glass bottom dish (Cellvis catalog# D35C4-20-1.5-N) in complete media; media was changed to CSSM prior to DHT treatment. The cells were fixed in 4% paraformaldehyde for 20 minutes and permeabilized using permeabilizing buffer (0.2% Tween 20 in PBS) for 5 minutes. Cells were blocked using 10% goat serum diluted in permeabilizing buffer with 1% BSA for 15 minutes. Primary antibodies were diluted at 1:100 in staining buffer (1% BSA in PBS) and incubated for 2 hours at room temperature. Cells were washed three times (5 minutes each) in PBS. Secondary antibodies, TRITC-conjugated Donkey Anti-rabbit (711-025-152) was from Jackson immuno research, West Grove, PA was diluted at 1:100 in staining buffer and incubated for 60 minutes at room temperature. Cells were washed three times (5 minutes) in PBS and stained with 1 μg/mL DAPI (4’, 6-diamidino-2-phenylindole) in PBS for 5 minutes at room temperature. The cells were stored in PBS at 4°C until imaging was completed.
Cells were imaged using confocal laser scanning microscopy on a Nikon A1R using a galvano scanner and a 60× Apo-TIRF oil immersion objective. NIS Elements software form Nikon was used for recording the data.

CC(C)=CCC/C(C)=C/COc1c2ccoc2cc2oc(=O)ccc12 [bergamottin]
IC50 [1]: 30 to 100 µM | downregulation of total AR levels (total AR in LNCaP cells): 50% | number of colonies (MDAPCa2b cells [2]): significantly reduced the number of colonies | PARP cleavage [3]: showed apoptosis (cleaved PARP) | nuclear translocation of AR (cell fractionation) [4]: inhibited nuclear translocation of AR | DNA breaks (TUNEL, apoptosis) (MDAPCa2b cells [5]): increased DNA breaks | inhibition at 10 µM (MDAPCa2b cells [6]; 10μM): 60% | IC50 (MDAPCa2b cells [6]; treatment 96 hours (methods) / 120 hours (Fig 1 legend), read-out: bergamottin concentration giving 50% growth reduction): 4 µM | PSA levels (PSA in LNCaP cells): significantly reduced PSA levels | active AR migration to the nucleus with DHT induction (confocal) [7]: significantly reduced
